US20250041190A1, “Composition and application, in particular cosmetic” (MICROPHYT, priority 2021, published 2025)

Key:
neuropeptide CGRP [1] = assay: CGRP ELISA assay in co-culture of keratinocytes and sensory neurons, oxidative stress with AITC; format: cell-based, human; details: positive control: AITC 1 mM alone, 30 min stress; unstressed control (DMSO 0.2%) = 100; n=6
Description: (§1) Sensory neurons were obtained from hiPS cells (human induced pluripotent stem cells), which were themselves obtained from human fibroblasts. The cells were seeded and maintained for 6 days in a differentiation-inducing medium at 37° C. (5% CO2). The culture medium was changed every 2 days. After 9 days in culture, the culture medium was replaced with a maturation medium. Cells were maintained in culture at a temperature of 37° C. under 5% CO2. The culture medium was changed every 2-3 days. After 14 days in culture, commercial keratinocytes from an adult donor (Lonza) were added to the differentiated hiPS cell culture. The co-culture was maintained in a culture medium consisting of a mixture of maturation medium and keratinocyte growth medium (Promocell) at a temperature of 37° C. under 5% CO2. The culture medium was changed every 2-3 days.
(§2) After a 17-day co-culture period, the composition was added to the medium at a final concentration by weight relative to the total weight of the medium and composition of 0.01% or 0.05% (w/w). […]
CGRP assay: After a 30-minute stress period, the culture supernatants were recovered and a CGRP assay by ELISA was performed. The results are expressed as the mean of 6 samples (n=6). […]

[2] = system: MOR receptor (μ-opioid receptor); assay: MOR receptor immunolabeling in co-culture of human keratinocytes and sensory neurons stressed with AITC; format: cell-based; details: positive control: AITC 1 mM alone; composition-free control (DMSO 0.2%) = 100; n=6
Description: as §1, §2
(§3) Photographs were taken with an automated microscope (InCell 2200; GE Healthcare) at ×20 magnification. MOR marker expression density was measured and compared with the control condition, corresponding to the mean of 6 samples (n=6). […]

[3] = system: co-culture of sensory neurons and keratinocytes; assay: Length of neuronal extensions in co-culture of sensory neurons and keratinocytes stressed with capsaicin; format: cell-based, human; details: positive control: capsaicin 10 μM alone; composition-free control (DMSO 0.2%) = 100; n=6
Description: as §1
After a 17-day co-culture period, the composition was added to the medium at a final concentration by weight relative to the total weight of the medium and composition of 0.01% or 0.05% (w/w).
After a 24-hour incubation period, capsaicin (10 µM) or AITC (1 mM) or DMSO (0.2% w/w) as a control, was added to the co-culture in the presence of the composition according to the invention. […]
A neuron count was performed and the length of the neuronal extensions was measured for each condition. […]

[4] = system: MOR receptor (μ-opioid receptor); assay: MOR receptor immunolabeling in co-culture of human keratinocytes and sensory neurons stressed with capsaicin; format: cell-based; details: positive control: capsaicin 10 μM alone; composition-free control (DMSO 0.2%) = 100; n=6
Description: as §1, §2, §3

neuropeptide CGRP [5] = assay: CGRP ELISA assay in co-culture of keratinocytes and sensory neurons, oxidative stress with capsaicin; format: cell-based, human; details: positive control: capsaicin 10 μM alone, 30 min stress; unstressed control (DMSO 0.2%) = 100; n=6
Description: Sensory neurons were obtained from hiPS cells (human induced pluripotent stem cells), which were themselves obtained from human fibroblasts. The cells were seeded and maintained for 6 days in a differentiation-inducing medium at 37° C. (5% CO2). The culture medium was changed every 2 days. After 9 days in culture, the culture medium was replaced with a maturation medium. Cells were maintained in culture at a temperature of 37° C. under 5% CO2. The culture medium was changed every 2-3 days. After 14 days in culture, commercial keratinocytes from an adult donor (Lonza) were added to the differentiated hiPS cell culture. The co-culture was maintained in a culture medium consisting of a mixture of maturation medium and keratinocyte growth medium (Promocell) at a temperature of 37° C. under 5% CO2. The culture medium was changed every 2-3 days. After a 17-day co-culture period, the composition was added to the medium at a final concentration by weight relative to the total weight of the medium and composition of 0.01% or 0.05% (w/w). After a 24-hour incubation period, capsaicin (10 µM) or AITC (1 mM) or DMSO (0.2% w/w) as a control, was added to the co-culture in the presence of the composition according to the invention. […] The results are expressed as the mean of 6 samples (n=6).

SMILES | Protein amount of CGRP (%) (neuropeptide CGRP [1]) | Level of MOR receptor protein expression (%) [2] [%] | Length of neuronal extensions/nbr of neurons (%) [3] [%] | Level of MOR receptor protein expression (%) [4] [%] | Protein amount of CGRP (%) (neuropeptide CGRP [5])
C=CCN=C=S [AITC, allyl isothiocyanate] | 132 | 78 |  |  | 
COc1cc(CNC(=O)CCCC/C=C/C(C)C)ccc1O [capsaicin] |  |  | 76 | 82 | 135
